Legend:
[1] = Lipophilicity assay (octanol/buffer Log D); assay type: physicochemical; conditions: pH 7.4, n-octanol/sodium phosphate buffer
Experimental: 1.56 g NaH2PO4·2H2O was dissolved in 0.5 L water in a 1 L beaker. After adjusting pH to 7.4 using NaOH solution, the volume was made up to 1 L. Equal volumes of sodium phosphate buffer (10 mM, pH 7.4) and n-octanol were added to a separation funnel and mixed thoroughly by shaking and inverting the funnel several times. The two layers were allowed to separate for overnight and then dispensed in two separate glass bottles. 10 mM stock solution was prepared in 100% DMSO and stored at 4° C. 495 μL of organic phase (1-octanol) was added to each well of a 2 mL deep well plate, followed by 495 μL of buffer and 10 μL of test substance was added. The plate was incubated for 3 hrs at room temperature on a plate shaker at 500 rpm. After incubation, the samples were allowed to equilibrate for 20 min and then centrifuged at 4000 rpm for 30 min for complete phase separation and analysed by LC-UV. Log D=Log (area of octanol/area of buffer)

[2] = system: ATGL; experiment: Fold change in ATGL by densitometric analysis; assay type: cell-based; conditions: fold change of ATGL with respect to control, normalized with actin
Experimental: Densitimetric analysis was performed by image J to calculate the fold change of ATGL with respect to control. The values were normalized with actin.

[3] = system: ATGL; experiment: Western blot of ATGL level in HepG2 cells after compound treatment; assay type: cell-based; conditions: 24 hours; for ATGL level (Western Blot): 50 nM to 5 μM dose dependent, with respect to control; for induction of ATGL (Western Blot): 5 μM
Experimental: (§1) HepG2 cells were treated with the compounds 5, 8, 11, 59, 62, 91, 94 (50 nM, 100 nM, 200 nM, 500 nM, 1 μM and 5 μM for dose dependent assays) for 24 hours. After removing media from the cells, the wells were washed with 1×PBS twice to remove any remnant media. Cells were then lysed in lysis buffer containing 50 mM Tris-HCl (pH 7.4), 100 mM NaCl, 1 mM EDTA, 1 mM EGTA, 1% Triton X-100 and protease inhibitor cocktail (Millipore, Billierica, MA, USA). Following centrifugation at 20,000 g for 20 minutes, the protein solution was extracted from the cells. Protein was estimated using Bradford assay. Bradford's reagent (BioRad) was diluted in 1:4 ratio in double distilled water. 2 μl of protein sample was added to 100 μl of the reagent and absorbance was measured at 595 nm. 30 μg of protein was diluted in lysis buffer. 1X loading buffer diluted from 5X stock containing 250 mM Tris-HCl (pH 6.8), 10% SDS, 50% glycerol, 0.1% bromophenol Blue and 10% β-mercaptoethanol was added. The protein samples were then heated at 95° C. for 10 minutes, cooled and centrifuged at 12,000 g for 2 minutes prior to loading.
For western blotting, the proteins were resolved in 10% SDS PAGE (discontinuous buffer system). 1X running buffer containing SDS, Tris Base and Glycine was used to run the gel at 80V for approximately 2 hours. Transfer was done using PVDF membrane (Millipore) having pore size of 0.45 μm. 1X transfer buffer containing Tris-Base, Glycine and 20% methanol was used for wet transfer. Transfer was done at 90V for 3 hours. Following transfer, the PVDF membrane containing the proteins were washed in 1×PBST comprising of 1×PBS and 1% Tween 20 (Sigma Aldrich). The membrane was then incubated for 1 hour at room temperature in 5% skim milk powder to block the non-specific sites. Following multiple washes with 1×PBST to wash away any remaining blocking buffer, the required primary antibody (COP1 [BethylLaboraties], ATGL [Cell Signalling Technology] or Actin[Cell Signalling Technology]) prepared with 1×PBST, 1% Bovine Serum Albumin and 0.04% Sodium Azide was added to the membrane and incubated overnight at 4° C. The next day, the membrane was again washed multiple times with 1×PBST to remove any unbound primary antibody. The membrane was then incubated with goat anti-rabbit secondary antibody (Genei) for 1 hour at room temperature and washed again for multiple times with 1×PBST. The membrane was then developed using Clarity™ ECL Western Blotting Substrate (BioRad) and viewed in ChemiDoc (BioRad).
as §1, with “62, 65,” for “62,”, “at” for “(50 nM, 100 nM, 200 nM, 500 nM, 1 μM and”, “μM” for “μM for dose dependent assays)”, “cocktail 1” for “cocktail”

[4] = Determination of EC50 (in-vitro)

SMILES	LogD @ pH 7.4 [1]	Fold change [2]	ATGL level (Western Blot) [3]	induction of ATGL (Western Blot) [3]	EC50 [4] [nM]	logD [1]
COCCn1c(=O)[nH]c2ccc(NC(=O)Nc3cccc(C(C)=O)c3)cc2c1=O [Compound 5, 1-(3-acetylphenyl)-3-(3-(2-methoxyethyl)-2,4-dioxo-1,2,3,4-tetrahydroquinazolin-6-yl)urea]	2.17	1.44	increased ATGL level	ability to induce ATGL		
COCCn1c(=O)c2cc(NC(=O)Nc3cccc(C(C)=O)c3)ccc2n(CCN2CCCCC2)c1=O [Compound 62, 1-(3-acetylphenyl)-3-(3-(2-methoxyethyl)-2,4-dioxo-1-(2-(piperidin-1-yl)ethyl)-1,2,3,4-tetrahydroquinazolin-6-yl)urea]	2.78	1.55	increased ATGL level	ability to induce ATGL	45.7	
COCCn1c(=O)c2cc(NC(=O)Nc3cccc(C(C)=O)c3)ccc2n(CCCN2CCOCC2)c1=O [Compound 94, 1-(3-acetylphenyl)-3-(3-(2-methoxyethyl)-1-(3-morpholinopropyl)-2,4-dioxo-1,2,3,4-tetrahydroquinazolin-6-yl)urea]		0.84	increased ATGL level	ability to induce ATGL		0.97

From US20250154112A1, “A PREPARATION OF QUINAZOLINEDIONES AND USE THEREOF” (COUNCIL OF SCIENTIFIC AND INDUSTRIAL RESEARCH AN INDIAN …, priority 2021, published 2025)
